This is an account of results in patent publication EP4669337B1, “AGENTS USEFUL FOR THE PREVENTION OR TREATMENT OF ALLERGIC & INFLAMMATORY DISORDERS” (ATOPIA THERAPEUTICS SA, priority 2023, dated 2025).

This assay relates to engineered human embryonic kidney (HEK-293) TGF-β reporter cells. As to the kind of experiment: HEK-Blue hTGFβ reporter cell assay (Smad-inducible SEAP, optical density at 650 nm). As to conditions: 20 µl of a 3µM inhibitor solution in 200 µl total volume, added 1 hour before the test compound; SEQ ID NO:31 at 6.25-150 µg/ml; overnight incubation. Type of assay: cell-based. The method, then:
Polypeptides of the invention have been tested in the cells above in order to determine cell-surface receptors through which they signal and thereby induce immunotolerance. For this purpose, a peptide of the invention of SEQ ID NO:31 was administered to commercial engineered human embryonic kidney (HEK-293) TGF-β reporter cells that induce the production of Smad-inducible secreted embryonic alkaline phosphatase (SEAP) when human TGF-β triggers a signaling cascade leading to the formation of a Smad3/Smad4 complex which can be monitored by optical density at 650 nm as follows.
In a 96-well plate (200 µl total volume), 20 µl of a solution containing 3µM of the inhibitor LY-364947 in medium, or medium alone, are placed in a well, followed by the addition 160 µl of the HEK-Blue hTGFβ cell suspension. After 1 hour incubation, 20 µl of the test compound or the positive control are added to the wells. […] SEAP activity is assayed from the supernatant of HEK-Blue hTGFb cell by reading the optical density at 650 nm using a spectrophotometer after 3 hours incubation at 37°C with Quanti-blue, a SEAP detection reagent.
In this particular case, the formation of the Smad3/Smad4 complex (illustrated by the measured OD650 as shown on Figure 8) was induced by the presence of SEQ ID NO:31 at the following concentrations: 6.25, 12.5, 25, 50, 75, 100, 125, and 150 µg/ml. […]

For the molecule `c1ccc(-c2nn3c(c2-c2ccnc4cc(OCCN5CCOCC5)ccc24)CCC3)nc1` [LY2109761], the “Smad3/Smad4 signaling cascade induced by SEQ ID NO:31 (SEAP, OD650)” value was “antagonized”.
